Source: US12063930B2, “Sulfonamide-containing 4-(N-methyl) aminopiperidine myricetin derivatives, preparation method and application” (Guizhou University, priority 2019, dated 2024)
Read-outs that look alike come from different tables or passages of the source.

Key:
[1] = tested on: tobacco bacterial wilt pathogen (Rs); type: cell-based, Ralstonia solanacearum
[2] = tested on: citrus canker pathogen (Xac); test: Turbidimetric anti-plant bacterial activity test, citrus canker pathogen; type: cell-based, Xanthomonas axonopodis pv. citri
[3] = tested on: rice bacterial wilt pathogen (Xoo); type: cell-based, Xanthomonas oryzae pv. oryzae

## COc1cc(OC)c2c(=O)c(OCCCN(C)C3CCN(S(=O)(=O)c4ccc(F)cc4)CC3)c(-c3cc(OC)c(OC)c(OC)c3)oc2c1 [Compound I3]
[1]; 50 μg/mL
  Inhibition Rate: 56.37 ± 3.41%
[1]; 100 μg/mL
  Inhibition Rate: 55.25 ± 2.35%
[2]; 50 μg/mL
  Inhibition Rate: 88.81 ± 1.32%
[2]; 100 μg/mL
  Inhibition Rate: 94.73 ± 1.63%
[3]; 50 μg/mL
  Inhibition Rate: 9.99 ± 7.64%
[3]; 100 μg/mL
  Inhibition Rate: 53.31 ± 3.55%
